In patent publication US20230398126A1 (priority 2022, published 2023):

Columns and labels:
[1] = test system: MP12 vaccine and its divergents; conditions: cited from earlier work
virulent RVFVs = conditions: cited from earlier work
MP12 virus = assay: microbe, parasite or virus in culture; assay type: cell-based; conditions: Rift Valley fever virus, Vero C1008
in vitro = conditions: African green monkey

Row | SMILES | inhibition of MP12 vaccine and its divergents [1] | antiviral activity on tested virulent RVFVs (virulent RVFVs) | EC50 (MP12 virus) | CC50 (in vitro)
1 | O=c1cnn([C@@H]2O[C@H](CO)[C@@H](O)[C@H]2O)c(=O)[nH]1 [Compound 6-azauridine, 6-azauridine] | inhibited | antiviral activity |  | 
2 | NC(=O)c1ncn([C@@H]2O[C@H](CO)[C@@H](O)[C@H]2O)n1 [Ribavirin] | inhibited | antiviral activity |  | 
3 | CN1C(=O)c2cccnc2Sc2cc(C(=O)Nc3ccc(Cl)cc3)ccc21 [WMA-RV1] |  |  | 0.863 µM | 320 µM
4 | NC(=O)c1ccc2c(c1)n(Cc1cccc(F)c1)c(=O)c1ccnn12 [WMA-RV2] |  |  | 6.96 µM | > 1280 µM
5 | CC(Cl)C(=O)N1CCCN(c2nc3ccccc3nc2-c2ccccc2)CC1 (centres unmarked) [WMA-RV3] |  |  | 2.08 µM | 363 µM
6 | CC(Cl)C(=O)N1CCN(c2nccc(-c3ccc(C(C)(C)C)cc3)n2)CC1 (centres unmarked) [WMA-RV4] |  |  | 3.19 µM | 168 µM
7 | Cc1cc(C)c(C)c(S(=O)(=O)N2CCC(c3c[nH]c4c(C)cccc34)CC2)c1C [WMA-RV5] |  |  | 9.14 µM | > 1280 µM
8 | Cc1ccc(CN2CCCN(c3ccc(NC(=O)c4ccccc4C)cn3)CC2)cc1 [WMA-RV6] |  |  | 1.03 µM | 692 µM
9 | Cc1ccccc1CN1CCCN(c2cccc(NC(=O)c3cccs3)c2)C1=O [WMA-RV7] |  |  | 15.5 µM | > 1280 µM
10 | Cc1nn(-c2ccccc2)c2sc(C(=O)NC(C)C)cc12 [WMA-RV8] |  |  | 13 µM | > 1280 µM
